Experimental data taken from US9593146B2, “CD44v6-derived peptides for treating metastasizing cancer” (AMCURE GMBH, priority 2012, dated 2017).

Columns and labels:
Met and ERK [1] = test: HGF induced activation of Met and ERK in L3.6pl cells (Western blot); type: cell-based, human; details: L3.6pl cells, peptide prior to induction with 10 ng/ml HGF
Procedure: (§1) Serum-starved cells (24 hours) were induced with the growth factor HGF (10 ng/mL) at 37° C. for 5 minutes. Where indicated, the cells were treated with peptides (100 ng/ml) prior to induction at 37° C. for 10 minutes (100 ng/mL CD44v6 peptide or control peptide). Following the induction with HGF, cells were washed with ice-cold phosphate-buffered saline (PBS). To detect activated Met and Erk, cells were lysed in sodium dodecyl sulfate (SDS)-sample buffer containing 100 mM dithiothreitol (DTT), boiled and subjected to western blot analysis using antibodies against phospho-Met and ERK. The loading controls were performed on the same blot after stripping (62.5 mM Tris, pH 6.8, 2% SDS, 0.8% DTT) by probing with the Met respectively ERK antibody. Blots were stained using the enhanced chemiluminescence system (Thermo Fisher Scientific, Schwerte, Germany). Bands in western blot analysis were quantified with the program Image J (National Institutes of Health).

L3.6pl cells = test: Human orthotopic model of pancreatic cancer, L3.6pl cells in nude mice; type: in vivo
Procedure: In the case of the human orthotopic model, L3.6pl pancreatic carcinoma cells (passage 24-26) were suspended in Hank's balanced salt solution (Invitrogen, Karlsruhe, Germany) after trypsinization. The cells were injected orthotopically in the pancreas of male nude mice as described (Bruns C J et al. (1999) Neoplasia 1(1):50-62). Two groups of 15 mice each were injected i.p. 7 days later with either the human v6 peptide respectively rat control peptide (20 μg). For all experiments described and depicted herein either the rat 14mer control peptide or the human 14mer peptide were used. All experiments were then repeated with the rat 5mer control peptide or the human 5mer peptide (N-R-W-H-E, SEQ ID NO: 2). […] The injection was repeated three times per week for 21 days. Two days after the last treatment the animals were killed. […]
A comparison of different CD44v6 peptide derivatives was performed in animals bearing a orthotopic L3.6pl tumor. 10 groups of 5 animals each received a dose of 20 μg peptide per injection three times per week for 3 weeks with the compounds listed in Table 4. Three weeks after starting the treatment the animals were sacrificed and analyzed for macroscopic metastases and tumor volume.

BSp73ASs6 cells [2] = test: Rat syngeneic model, subcutaneous BSp73ASs6 tumor, metastasis formation; type: in vivo; details: for metastasis (axillary lymph nodes, lungs): 200 μg per injection, intra-tumoral or intravenously three times a week, start after one week of tumor growth; for outgrowth of primary tumors / metastasis and micro-metastasis in lung sections (PAS and H&E staining): same treatment; for outgrowth of primary tumors: 28 days; for metastasis and micro-metastasis in lung sections (PAS and H&E staining): histological analysis
Procedure: In the case of the rat syngeneic model, 1×10^6 pancreatic cells (BSp73AS and its transfectants) were subcutaneously injected into the right posterior flank of the animals. Tumors developed for four weeks. During this time period animals injected with BSp73ASs6 cells expressing Met-shRNA or control-shRNA received doxycycline in the drinking water. At the end of the experiment, primary tumors were isolated. Lungs and axillary lymph nodes were analyzed. The tissues were incubated for 24 h in a zinc-fixative (0.5 g calcium acetate, 5.0 g zinc acetate, 5.0 g zinc chloride, in 1 L 0.1 M Tris pH 7.4) and embedded in paraffin for further analysis. In case of peptide or antibody treatment tumors developed for one week before the first treatment. Where indicated, animals received 200 μg of peptide or antibody per injection three times per week for four weeks. Tumor growth was monitored weekly using a caliper. Animals were killed at day 28 or 30 after start of the treatment.
For histo-morphological analysis paraffin-embedded sections of lungs were stained with hematoxylin and eosin and periodic acid-Schiff (H&E or PAS). Serial sections of the whole tissue blocks were examined by analyzing slices every 20 μm; in each slice, the presence and the extension of the metastatic deposit was assessed, according to the procedure routinely used by pathologists to evaluate the presence of micro-metastases.

4T1 cells = test: Syngeneic orthotopic 4T1 mammary carcinoma model in BALB/c mice; type: in vivo; details: 20 μg i.p. 3 times per week for two weeks
Procedure: FIG. 26: Treatment with the v6 14mer reduces growth of the primary tumor and macroscopic metastases formation in the lung. 1×10^6 murine 4T1 cells per mouse were diluted in 50 μl RPMI plus 50 μl Matrigel and injected into the 6th mammary fat pad of 10 female BALB/c mice. One week after the injection, the mice were either injected intraperitoneally with 20 μg of the murine v6 14mer dissolved in 100 μl PBS or with 20 μg of control peptide (rat v6 14mer) dissolved in 100 μl PBS. The injection was performed 3 times per week for two weeks. After 2 weeks the mice were sacrificed and the primary tumors and the lungs were extracted. A: Overall reduction of the tumor volume in the v6 peptide treated group. B: Immunofluorescent staining for the endothelial marker CD34 to monitor vascularization of the primary tumor. Graphic representation of the reduction of the total vessel area. C: The v6 peptides led to a reduction in macroscopic lung metastasis. The black arrows mark examples for metastases. The scale bar corresponds to a size of 1 cm. Statistical evaluation of the average number of lung metastases. Significance was calculated using Student's t test: p*<0.01; **p<0.005. Each group consisted of 5 animals.
The effect of the CD44v6 14mer was tested in a syngeneic mouse model by orthotopic injection of the murine mammary carcinoma cells 4T1. 4T1 cells were originally derived from a spontaneously arising BALB/c mammary tumor. When introduced orthotopically, 4T1 cells grow rapidly at the primary site and form metastases in the lung and the lymph nodes within a period of 3-6 weeks. The tumor growth and metastatic spreading of 4T1 cells in BALB/c mice very closely mimics human breast cancer stage IV.
The 4T1 cells were injected orthotopically into the 6th mammary fat pad. Two groups of 5 animals each with the implanted tumor cells were then used for the experiment. One group was treated with the v6 14mer peptide, one with a control (rat) peptide. The injection of the peptide was performed 3 times per week and planned for three to four weeks but had to be stopped after two weeks as the control group suffered from large tumors.

BSp73ASs6 cells [3] = test: Apoptosis in established lung metastases (cleaved Caspase-3, cleaved Caspase-8), BSp73ASs6 rat model; type: in vivo; details: injection every second day
Procedure: 7 μm thick paraffin sections were deparaffinized and rehydrated. For P-Met staining antigen unmasking was achieved by boiling the slides in 1 mM EDTA pH 8.0 followed by incubation for 15 minutes at a sub-boiling temperature, for CD31 staining the sections were treated with Proteinase K (8 μg/ml) for 10 min at 37° C. For immunofluorescence staining of P-Met, unspecific binding was blocked with 5% goat serum (DAKO, Glostrup, Denmark) (diluted in 1×PBS/0.3% Triton X-100) for 60 minutes. In the case of immunohistochemistry, endogenous peroxidases were at first blocked with 3% H2O2 in PBS followed by incubation with biotin blocking system (Dako, Glostrup, Denmark) and then unspecific binding was inhibited by incubation with 5% FCS in PBS. The sections were incubated with the P-Met antibody (D26, dilution 1:50 in 1×PBS/1% BSA/0.3% Triton X-100), Met antibody (C-28, dilution 1:50), GFP antibody (sc-101525, dilution 1:50) or CD31 antibody (5 μg/ml) over night or VFF18 (5 μg/ml) o/n at 4° C. After washing in PBS the sections were incubated with Alexa Fluor R 546 goat anti-rabbit (in case of immunofluorescence P-Met and Met staining, dilution 1:500) or a biotinylated secondary antibody (for immunohistochemical stainings rabbit anti-rat antibody for VFF18 and CD31, goat anti-rabbit for P-Met, cleaved Caspase-3 and cleaved Caspase-8 and rabbit anti-mouse for GFP, dilution 1:500) for 45 minutes. For DAB (3,3′-diaminobenzidine) staining the sections were treated with a streptavidin-peroxidase conjugate (Dako, Glostrup, Denmark) and developed with DAB substrate system (3,3′-diaminobenzidine; Biozol, Eching, Germany). For immunofluorescence DAPI was used for nuclear staining.
One hypothesis for the disappearance of metastases is that the peptides induce apoptosis of CD44v6-expressing metastatic cells in the secondary organs. In order to test this hypothesis, the experiment described above using the BSp73ASs6 cells was repeated. The cells were injected subcutaneously in syngeneic rats and the tumor was allowed to develop for three weeks. After that time the animals were separated in two groups of 10 animals that were injected either with the specific rat CD44v6 peptide or with the control peptide (mouse) every second day. One day following each injection of the peptide, the lungs of one animal were removed and apoptosis was measured using an antibody that detects the cleaved form of Caspase 3. […] Twelve days after injection of the CD44v6 peptide, less apoptosis was observed. […] From these experiments, it is concluded that the CD44v6 peptide induces apoptosis of metastatic cells.

HT29 cells = test: HGF induced scattering of HT29 cells; type: cell-based, human; details: for HGF induced clustering / scattering of HT29 cells (FIG. 11): HGF 10 ng/ml, peptide pre-incubation (Example 2)
Procedure: FIG. 17: The human CD44 v6 specific peptides block HGF induced cell scattering and invasion into matrigel. Scattering of HT29 cells was determined in 24-well plates. First, 4.5×10^4 cells were seeded at 37° C.; after 24 h the cells were serum starved for additional 24 h. the cells were either left untreated (control) or later treated with HGF (50 ng/ml) for 24 h. Where indicated the cells were treated with the v6 specific peptide (human v6 5mer, 10mer, 14mer) or control peptide prior to induction with HGF for 30 min. Pictures were made using phase contrast microscopy. Magnification 40×.
A scatter assay was performed additionally. HT29 colon cancer cells were grown in medium containing 10% FCS. One day after seeding, the cells were starved. On the third day, the cells were induced with HGF (10 ng/ml) and pre-incubated with either no peptide, ctrl-peptides (SEQ ID No.: 15), non-pegylated v6-peptides (SEQ ID No.: 11) or the pegylated peptides, namely PEG-rat control peptide and PEG-rat CD44v6 peptide.
Scattering of HT29 cells was determined in 24-well plates. First, 4×10^5 cells were seeded at 37° C.; the cells were either left untreated or 48 h later treated with HGF (50 ng/ml) for 24 h or with PEGylated or non-PEGylated peptides (100 ng/ml) prior to HGF induction for 30 min.

Met and ERK [4] = test: HGF induced activation of Met and Erk in BSp73ASs6 cells (Western blot); type: cell-based, rat
Procedure: as §1
Rat pancreatic cancer cells BSp73ASs6 (also designated Ass6) were incubated for 10 min at 37° C. with either ctrl-peptides (SEQ ID No.: 15), non-pegylated v6-peptides (SEQ ID No.: 11) and increasing concentrations of the pegylated peptides, namely PEG-rat control peptide and PEG-rat CD44v6 peptide, before induction with HGF (10 ng/ml; 5 min at 37° C.).
Activation of ERK and Met was determined by standard SDS and Western Blotting techniques using a phospho-Met and phospho-Erk specific antibody (phospho-Met clone D16 cell signaling, phospho-Erk p42/44 cell signaling)
ASs6 cells, serum starved for 24 h, were induced with HGF (10 ng/ml) at 37° C. for 5 min. Where indicated, the cells were treated with PEGylated or non-PEGylated peptides before induction at 37° C. for 10 min (150 nM). Cells were washed with phosphate-buffered saline (PBS) and lysed in boiling sodium dodecyl sulfate (SDS)-sample buffer containing 100 mM dithiothreitol (DTT). Subsequently, lysates were subjected to Western blot analysis using antibodies against phosphorylated Mek and Erk (Cell signaling). The Mek and Erk loading control were performed on the same blot, stripped (62.5 mM Tris pH 6.8, 2% SDS, 0.8% DTT) and probed with the Mek and Erk antibodies. Blots were stained using the enhanced chemiluminescence system (Thermo Fisher Scientific).

[5] = 20 μg i.p. three times per week for three weeks, start 7 days after implantation

| Substance | Phosphorylation of Met and ERK (Met and ERK [1]) | metastasis formation (liver) (L3.6pl cells; [5]) | outgrowth of the primary tumor in the pancreas (L3.6pl cells; [5]) | metastasis (axillary lymph nodes, lungs) (BSp73ASs6 cells [2]) | outgrowth of primary tumors (BSp73ASs6 cells [2]) | metastasis and micro-metastasis in lung sections (PAS and H&E staining) (BSp73ASs6 cells [2]) | average number of metastases (4T1 cells; 5 animals) [metastases per lung] | macroscopic lung metastases per animal (4T1 cells; 5 animals per group) | lung metastasis at day twenty-two (BSp73ASs6 cells [3]) | time of maximum of apoptosis (BSp73ASs6 cells [3]) | first detection of apoptotic cells (cleaved Caspase 3) in tumor areas of the lungs (BSp73ASs6 cells [3]; start three weeks after tumor cell injection) | all experiments of the human orthotopic model repeated with 5mer peptides (L3.6pl cells; 20 μg i.p. three times per week for 21 days) | HGF induced clustering / scattering of HT29 cells (FIG. 11) (HT29 cells) | HGF induced Met-phosphorylation and Erk signaling (Met and ERK [4]; ASs6 cells, peptides with 2000 dalton PEG-chain, 150 nM 10 min before HGF 10 ng/ml (FIG. 10)) | Inhibition of ERK, pegylated vs. non-pegylated peptides (Met and ERK [4]; BSp73ASs6 cells) | HGF dependent activation of Met and ERK (Met and ERK [4]; pegylated rat 5mer, 10 min pre-incubation, HGF 10 ng/ml 5 min (FIGS. 9, 10)) | HGF induced scattering of HT29 cells (HT29 cells; PEGylated peptides 100 ng/ml prior to HGF 50 ng/ml (Example 5, FIG. 11)) |
| --- | --- | --- | --- | --- | --- | --- | --- | --- | --- | --- | --- | --- | --- | --- | --- | --- | --- |
| KEKWFENEWQGKNP [rat 14mer, rat CD44v6 14mer; control peptide in human and mouse models] | had no influence on receptor activation and signal transduction | neither any influence on metastasis formation | nor on growth of the primary tumor | completely inhibited metastasis | not influenced by either treatment | neither metastasis nor micro-metastasis could be detected | 6 | all mice treated with the control peptide developed metastases | no metastasis could be detected anymore | eight days after the first injection | as early as three days after the first injection |  |  |  |  |  |  |
| NEWQG [rat 5mer, rat CD44v6 5mer peptide] | had no influence on receptor activation and signal transduction |  |  | completely inhibited metastasis | not influenced by either treatment | neither metastasis nor micro-metastasis could be detected |  |  |  |  |  | The same results as for the 14mer peptides were observed | lead to dissociation and migration of cells away from these cell cluster |  |  |  |  |
| PEG-NEWQG [PEG-rat CD44v6 peptide, rat CD44v6 5mer pegylated at the N-terminal] |  |  |  |  |  |  |  |  |  |  |  |  | lead to dissociation and migration of cells away from these cell cluster | HGF completely failed to induce Met-phosphorylation and to activate Erk signaling | even more efficient | efficient in inhibiting HGF dependent activation of Met and ERK | strongly inhibited |
